# Structures can show the parent of a compound that is named as a salt. Where two headings read alike, the source gives them in different places.
# How the values were obtained:
# Tolerability in mice = assay: Tolerability in mice; set-up: species or system mice (male albino Swiss); details: mouse, in vivo, read-out: TOLERABILITY dose
# Description: Male albino Swiss mice weighing 22-24 g were used in this test.
# One group of animals (4/dose) which had been kept fasting for 18 hours was orally administered the compounds dissolved in twice distilled water. The same compounds dissolved in saline at pH=7 were intravenously injected in a further group of animals which had free access to food and drinking water. All of the animals were monitored for 7 days.
# [1] = LD50 in mice (Weil's method); details: mouse, in vivo; intravenous route, male Albino Swiss mice
# Description: LD50 was assessed according to the Carrol S. WEIL's method (Biometrics, pages […] (1952)) on male Albino Swiss mice weighing 22-24 g. The compounds dissolved in […] saline solution were administered via the intravenous route.
# Normotensive cats = assay: Measure of arterial pressure in cats (hypotensive effect in normotensive cats); type: in vivo; details: via crural vein; as to EFFECT DURATION (hypotension in normotensive cats): key: S: short; A: average; L: long
# Description: (a) Measure of arterial pressure in cats.
# Normotensive cats of either sex weighing 2.5-3.5 kgs were used in this test.
# The animals fasted for 18 hours were anesthetized with Na Nembutal (30 mg/kg) and ethyl urethane (300 mg/kg i.p.). The crural vein and artery of the animals were cannulated, the former for administering the compounds, the latter for monitoring the arterial pressure. The arterial pressure was measured via a mercury gauge connected to a rotating kymograph.
# The compounds were dissolved in sterile 0.9% saline and administered at physiological pH in a 0.5 ml/kg volume.
# SHR hypertensive rats = assay: Non-invasive measure of arterial pressure in genetically hypertensive rats (SHR); type: in vivo, rats (male SHR)
# Description: (b) Non-invasive measure of arterial pressure in genetically hypertensive rats.
# Male SHR rats (Charles River) of 3-4 months were used in this test. The compounds listed were dissolved in either 0.9% saline or twice distilled water and administered via the oral route or i.p. (50-100 mg/5 ml/kg).
# The animals, housed in individual cages at 23° C. and 60% humidity, had free access to food and drinking water. A BP recorder (Letica) equipped with a two-way polygraph was used. The systolic and diastolic pressure and the heart rate were recorded. The animals, a few days before the test began, were accustomed to be constrained on a heating plate (at 38° C.±1° C.) for 20 minutes).
# During the pre-tests, the assessments were made at time 0 (8^30 -9^30 a.m.) and after 1, 2 and 4 hours.
# Every assessment was the average of 3 measures and the maximum residence time of the animal in the thermostatized chamber (for the whole test duration) was 40 minutes.
# Student's "t" test was used for assessing the difference with respect to the control group and its own 0 time.
# [2] = iv, e.p. (head), intravenously injected in saline pH 7, monitored 7 days
# [3] = os (oral), fasted mice, monitored 7 days
SMILES,MTD at 168 h (Tolerability in mice; [2]) [mg/kg],MTD at 168 h (Tolerability in mice; [3]) [mg/kg],LD50 [1] [mg/kg],"HYPOTENSIVE EFFECT IN NORMOTENSIVE CATS, hypotension (Normotensive cats; dose 1-4 mg/kg) [mm Hg]",EFFECT DURATION (hypotension in normotensive cats) (Normotensive cats; dose 2 mg/kg),also measured
"COc1cc2c(cc1OC)CC(NC(=O)[C@H](C)NC(=O)[C@@H](N)CCSC)CC2.Cl (stereo partly shown) [ST 586, 2-(N-methionylalanyl)amino-6,7-dimethoxy tetraline hydrochloride]",> 50,> 50,229,,,"HYPOTENSIVE EFFECT IN NORMOTENSIVE CATS, hypotension (Normotensive cats; dose 2 mg/kg): 0 mm Hg; EFFECT DURATION (hypotension in normotensive cats) (Normotensive cats; dose 4 mg/kg): S"
"CCN(C(=O)[C@H](C)NC(=O)[C@@H](N)Cc1c[nH]c2ccccc12)C1CCc2cc(OC)c(OC)cc2C1 (stereo partly shown) [ST 604, 2-(N-ethyl,N-tryptophylalanyl)amino-6,7-dimethoxy tetraline hydrochloride]",> 50,> 50,85,0,,
"COc1cc2c(cc1OC)CC(NC(=O)[C@H](C)NC(=O)[C@@H](N)Cc1ccc(O)cc1)CC2.Cl (stereo partly shown) [ST 605, 2-(N-tyrosylalanyl)amino-6,7-dimethoxy tetraline hydrochloride]",> 50,> 50,72.3,,S,"HYPOTENSIVE EFFECT IN NORMOTENSIVE CATS, hypotension (Normotensive cats; dose 1 mg/kg): 0 mm Hg; ANTIHYPERTENSIVE EFFECT IN SHR HYPERTENSIVE RATS (SHR hypertensive rats; 100 mg/kg e.p., 1st h): -40 mm Hg; ANTIHYPERTENSIVE EFFECT IN SHR HYPERTENSIVE RATS (SHR hypertensive rats; 100 mg/kg e.p., 2nd h): -38 mm Hg; ANTIHYPERTENSIVE EFFECT IN SHR HYPERTENSIVE RATS (SHR hypertensive rats; 100 mg/kg e.p., 4th h): -29 mm Hg; ANTIHYPERTENSIVE EFFECT IN SHR HYPERTENSIVE RATS (SHR hypertensive rats; 100 mg/kg os, single administration (*), 2nd h): -28 mm Hg; ANTIHYPERTENSIVE EFFECT IN SHR HYPERTENSIVE RATS (SHR hypertensive rats; 100 mg/kg os, single administration (*), 4th h): -31 mm Hg; ANTIHYPERTENSIVE EFFECT IN SHR HYPERTENSIVE RATS (SHR hypertensive rats; repeated administration (5 days) (**), dose column ""--"" below 100 os, 2nd h): -35 mm Hg; ANTIHYPERTENSIVE EFFECT IN SHR HYPERTENSIVE RATS (SHR hypertensive rats; repeated administration (5 days) (**), dose column ""--"" below 100 os, 4th h): -17 mm Hg"
"COc1cc2c(cc1OC)CC(NC(=O)CN)CC2 (stereo not shown) [ST 582, 2-N-glycylamino-6,7-dimethoxy tetraline hydrochloride]",> 50,> 50,72.3,,,"EFFECT DURATION (hypotension in normotensive cats) (Normotensive cats; dose 10 mg/kg): S; ANTIHYPERTENSIVE EFFECT IN SHR HYPERTENSIVE RATS (SHR hypertensive rats; 50 mg/kg i.p., 1st h): -37 mm Hg; ANTIHYPERTENSIVE EFFECT IN SHR HYPERTENSIVE RATS (SHR hypertensive rats; 50 mg/kg i.p., 2nd h): -27 mm Hg; ANTIHYPERTENSIVE EFFECT IN SHR HYPERTENSIVE RATS (SHR hypertensive rats; 50 mg/kg i.p., 4th h): 0 mm Hg"
"COc1cc2c(cc1OC)CC(NC(=O)C(N)CCSC)CC2 (stereo not shown) [ST 581, 2-N-methionylamino-6,7-dimethoxy tetraline hydrochloride]",> 50,> 50,74,0,,
"COc1cc2c(cc1OC)CC(NC(=O)[C@H](C)NC(=O)[C@@H](N)Cc1c[nH]c3ccccc13)CC2 (stereo partly shown) [ST 585, 2-(N-tryptophylalanyl)amino-6,7-dimethoxy tetraline hydrochloride]",> 50,> 50,115,,,"HYPOTENSIVE EFFECT IN NORMOTENSIVE CATS, hypotension (Normotensive cats; dose 4 mg/kg): 0 mm Hg; EFFECT DURATION (hypotension in normotensive cats) (Normotensive cats; dose 10 mg/kg): S"
"COc1cc2c(cc1OC)CC(NC(=O)C(N)Cc1ccc(O)cc1)CC2 (stereo not shown) [ST 589, 2-N-tyrosyl-6,7-dimethoxy tetraline hydrochloride]",> 50,> 50,218,,S,"EFFECT DURATION (hypotension in normotensive cats) (Normotensive cats; dose 1 mg/kg): S; ANTIHYPERTENSIVE EFFECT IN SHR HYPERTENSIVE RATS (SHR hypertensive rats; 100 mg/kg os, 1st h): -26 mm Hg; ANTIHYPERTENSIVE EFFECT IN SHR HYPERTENSIVE RATS (SHR hypertensive rats; 100 mg/kg os, 2nd h): -20 mm Hg; ANTIHYPERTENSIVE EFFECT IN SHR HYPERTENSIVE RATS (SHR hypertensive rats; 100 mg/kg os, 4th h): 0 mm Hg"
"CCN(C(=O)[C@H](C)NC(=O)[C@@H](N)CCSC)C1CCc2cc(OC)c(OC)cc2C1 (stereo partly shown) [ST 606, 2-(N-ethyl,N-methionylalanyl)amino-6,7-dimethoxy tetraline hydrochloride]",> 50,> 50,150,,S,EFFECT DURATION (hypotension in normotensive cats) (Normotensive cats; dose 1 mg/kg): S; EFFECT DURATION (hypotension in normotensive cats) (Normotensive cats; dose 4 mg/kg): S
"COc1cc2c(cc1OC)CC(NC(=O)[C@H](C)NC(=O)[C@@H](N)CC(C)C)CC2.Cl (stereo partly shown) [ST 584, 2-(N-leucylalanyl)amino-6,7-dimethoxy tetraline hydrochloride]",> 50,> 50,167,,,"ANTIHYPERTENSIVE EFFECT IN SHR HYPERTENSIVE RATS (SHR hypertensive rats; dose ""10C"" [sic] mg/kg os, 1st h): -12 mm Hg; ANTIHYPERTENSIVE EFFECT IN SHR HYPERTENSIVE RATS (SHR hypertensive rats; dose ""10C"" [sic] mg/kg os, 2nd h): 0 mm Hg; ANTIHYPERTENSIVE EFFECT IN SHR HYPERTENSIVE RATS (SHR hypertensive rats; dose ""10C"" [sic] mg/kg os, 4th h): 0 mm Hg"
"COc1cc2c(cc1OC)CC(NC(=O)C(N)Cc1c[nH]c3ccccc13)CC2 (stereo not shown) [ST 580, 2-N-tryptophylamino-6,7-dimethoxy tetraline hydrochloride]",> 50,> 50,66.7,0,,

# Source: US5053424A, “2-(N-acyl)amino-6,7-dimethoxy tetralines, and pharmaceutical compositions having antihypertensive activity containing same” (Sigma-Tau Industrie Farmaceutiche Riunite S.p.A., priority 1989, dated 1991)
